Assays:
Type in all cases: cell-based
[1] = test system: MCF-7 McGuire (Estrogen Responsive Human Breast Cancer Cell Line); assay: Inhibition of DNA synthesis (3H-TdR uptake) / proliferation, MCF-7; conditions: for inhibition at 0.1 µg/mL / inhibition at 1 µg/mL / inhibition at 5 µg/mL / inhibition at 10 µg/mL / inhibition at 20 µg/mL: Homo sapiens, MCF7, 48 h; for inhibition at 0.1 µg/mL: MCF-7, 0.1 μg/mL; for inhibition at 1 µg/mL: MCF-7, 1 μg/mL; for inhibition at 10 µg/mL: MCF-7, 10 μg/mL
Method: (§1) Cells were cultured in the following media: 1) MDA MB 435 cells were cultured in Minimum Essential Media (MEM-HyClone, Logan, Utah) supplemented with 5% heat inactivated fetal bovine serum (HyClone), 2 mM glutamine (Sigma, St. Louis, Mo.), 1 mM sodium pyruvate (Sigma), 1X MEM Non-Essential Amino Acids (Sigma), 2X MEM Vitamins (Sigma), and 100 IU/mL penicillin/100 μg/mL streptomycin (HyClone); 2) MCF-7 McGuire cells were cultured in Minimum Essential Media (MEM-HyClone, Logan, Utah) supplemented with 5% heat inactivated fetal bovine serum (HyClone), 2 mM glutamine (Sigma, St. Louis, Mo.), and 100 IU/mL penicillin/100 μg/mL streptomycin (HyClone); 3) HL-60 cells were cultured in Iscoves Modified Dulbecco's Media (IMDM-HyClone, Logan, Utah) supplemented with 5% heat inactivated fetal bovine serum (HyClone), 2 mM glutamine (Sigma, St. Louis, Mo.), 1 mM sodium pyruvate (Sigma), 1X MEM Non-Essential Amino Acids (Sigma), 2X MEM Vitamins (Sigma), and 100 IU/mL penicillin/100 μg/mL streptomycin (HyClone); 2) MCF-7 McGuire cells were cultured in Minimum Essential Media (MEM-HyClone, Logan, Utah) supplemented with 5% heat inactivated fetal bovine serum (HyClone), 2 mM glutamine (Sigma, St. Louis, Mo.), and 100 IU/mL penicillin/100 μg/mL streptomycin (HyClone); 3) HL-60 cells were cultured in Iscoves Modified Dulbecco's Media (IMDM-HyClone, Logan, Utah) supplemented with 5% heat inactivated fetal bovine serum (HyClone), 2 mM glutamine (Sigma, St. Louis, Mo.), and 100 IU/mL penicillin/100 μg/mL streptomycin (HyClone).
(§2) All compounds were handled as if they were light sensitive. All compounds were initially dissolved in absolute ethanol and subsequently diluted to a final concentration of 0.5% ethanol with the appropriate medium.
(§3) For the bioassay, all cells were used at 2.5×10^5 /mL. Cells were treated with each of the compounds at concentrations of 20, 10, 5, 1, 0.1, and 0.01 μg/mL , and 200 μl of each treatment group were plated in quadruplicate in a 96 well culture plate (Corning, Corning N.Y.). Plates were done in duplicate, one plate to be used for viability testing and the other plate to examine ^3 H-TdR uptake (DNA synthesis).
(§4) Plates were cultured for 48 hours at 37° C., 5% CO2. Eight hours prior to the end of incubation, ^3 H-TdR was added to one of the duplicate plates and incubation continued for 8 hours. The cells were then harvested (trypsinization was required to harvest MDA MB 435 and MCF-7 McGuire). At the end of the incubation, the cells were removed from the wells (of the duplicate plate--no radioisotope added) and viability checked by the Trypan Blue Exclusion method. Percent viability and percent suppression of each treatment group were calculated.
(§5) With respect to the data shown in the Tables below, the data is arranged from greatest percent inhibition of DNA synthesis to lowest. […] "NT" refers to "Not Tested". The cells were cultured for 48 hours, pulsed 8 hours with tritiated thymidine, harvested and counted. MDA MB 435 is the abbreviation for the Metastic Human Breast Cancer Cell Line. MCF-7 McGuire is the abbreviation for the Estrogen Responsive Human Breast Cancer Cell Line and HL-60 is the Human Promyelocytic Leukemia Cell Line.

[2] = test system: MDA MB 435 (Metastic Human Breast Cancer Cell Line); assay: Inhibition of DNA synthesis (3H-TdR uptake) / proliferation, MB-435; conditions: for inhibition at 0.1 µg/mL / inhibition at 1 µg/mL / inhibition at 5 µg/mL / inhibition at 10 µg/mL / inhibition at 20 µg/mL: Homo sapiens, MDA-MB-435, 48 h; for inhibition at 0.1 µg/mL: MB-435, 0.1 μg/mL; for inhibition at 1 µg/mL: MB-435, 1 μg/mL; for inhibition at 10 µg/mL: MB-435, 10 μg/mL
Method: as §1, §2, §3, §4, §5

[3] = test system: HL-60 (Human Promyelocytic Leukemia Cell Line); assay: Inhibition of DNA synthesis (3H-TdR uptake) / proliferation, HL-60; conditions: for inhibition at 0.1 µg/mL / inhibition at 1 µg/mL / inhibition at 5 µg/mL / inhibition at 10 µg/mL / inhibition at 20 µg/mL: Homo sapiens, 48 h; for inhibition at 0.1 µg/mL: HL-60, 0.1 μg/mL; for inhibition at 1 µg/mL: HL-60, 1 μg/mL; for inhibition at 10 µg/mL: HL-60, 10 μg/mL
Method: as §1, §2, §3, §4, §5

| SMILES | inhibition at 0.1 µg/mL [1] [%] | inhibition at 1 µg/mL [1] [%] | inhibition at 5 µg/mL ([1]; MCF-7, 5 μg/mL) [%] | inhibition at 10 µg/mL [1] [%] | inhibition at 0.1 µg/mL [2] [%] | inhibition at 1 µg/mL [2] [%] | inhibition at 5 µg/mL ([2]; MB-435, 5 μg/mL) [%] | inhibition at 10 µg/mL [2] [%] | inhibition at 20 µg/mL ([2]; MB-435, 20 μg/mL) [%] | inhibition at 0.1 µg/mL [3] [%] | inhibition at 1 µg/mL [3] [%] | inhibition at 5 µg/mL ([3]; HL-60, 5 μg/mL) [%] | inhibition at 10 µg/mL [3] [%] | inhibition at 20 µg/mL ([3]; HL-60, 20 μg/mL) [%] | inhibition at 20 µg/mL ([1]; MCF-7, 20 μg/mL) [%] | inhibition of proliferation (in words) ([1]; MCF-7, 10-20 μg/mL) | inhibition of proliferation (in words) ([2]; MB-435, 10-20 μg/mL) | inhibition of proliferation (in words) ([3]; HL-60, 10-20 μg/mL) | also measured |
| --- | --- | --- | --- | --- | --- | --- | --- | --- | --- | --- | --- | --- | --- | --- | --- | --- | --- | --- | --- |
| Cc1c(O)c(C)c2c(C)cn(C(=O)C(C)(C)C)c2c1C [Compound 27, N-Pivaloyl-5-hydroxy-3,4,6,7-tetramethylindole] | 0 | 14 | 57 | 86 | 4 | 15 | 54 | 91 | 97 | 0 | 12 | 61 | 91 | 97 |  |  |  |  | inhibition of proliferation (in words) ([1]; MCF-7, 5 μg/mL): significantly inhibited the proliferation; inhibition of proliferation (in words) ([2]; MB-435, 5 μg/mL): significantly inhibited the proliferation; inhibition of proliferation (in words) ([3]; HL-60, 5 μg/mL): significantly inhibited the proliferation |
| CC(=O)N1CC(C)(C)c2c(C)c(O)c(C)c(C)c21 [Compound 31b] | 0 | 0 | 29 | 18 | 0 | 0 | 0 | 15 | 33 | 0 | 0 | 6 | 15 | 28 | 22 | significantly inhibited the proliferation | significantly inhibited the proliferation | significantly inhibited the proliferation |  |
| Cc1c(C)c2c(c(C)c1O)CC1(CC1)O2 [Compound 32] | 0 | 10 | 5 | 18 | 6 | 6 | 15 | 30 | 43 | 11 | 5 | 12 | 17 | 26 | 22 | significantly inhibited the proliferation | significantly inhibited the proliferation | significantly inhibited the proliferation |  |
| Cc1cc2c(C)c(O)c(C)c(C)c2o1 [Compound 33, 5-Hydroxy-2,4,6,7-tetramethylbenzofuran] | 19 | 0 | 0 | 16 | 1 | 2 | 8 | 16 | 42 | 0 | 0 | 0 | 7 | 36 | 72 |  |  |  | inhibition of proliferation (in words) ([1]; MCF-7, 20 μg/mL): significantly inhibited the proliferation; inhibition of proliferation (in words) ([2]; MB-435, 20 μg/mL): significantly inhibited the proliferation; inhibition of proliferation (in words) ([3]; HL-60, 20 μg/mL): significantly inhibited the proliferation |
